In patent publication US20110003805A1, “CONCOMITANT DRUG” (TAKEDA PHARMACEUTICAL COMPANY LIMITED, priority 2008, published 2011):

Tested on: TS (thymidine) gene expression in human breast cancer cell line BT-474
Assay: Measurement of expression amount of TS (thymidine) by addition of compound A, TaqMan
Format: cell-based
Conditions: BT-474 cells, 100 nmol/L, two days after addition, GAPDH as internal standard (FIG. 4)
Description: Human breast cancer cell line BT-474 (ATCC (American Type Culture Collection) catalog No. HTB-20, Lasfargues EY, In Vitro 15:723-729(1979)), which is a passage cultured HER2 high expressing cell, was treated with trypsin and suspended in RPMI-1640 medium (GibcoInvitrogen) containing 10% bovine fetus serum (GibcoInvitrogen). The cell density of the cell suspension was measured by cell counter Sysmex CDA500, and the cell density was adjusted to 5×10^4 cell/mL using the aforementioned medium. The suspension was dispensed to each well of a 6 well multi-well culture plate (Corning) by 2 mL, and cultured overnight at 37° C. under 5% CO2. […] Using this cDNA as a template, the TS expression amount was measured using TaqMan Gene Expression Assays (Applied Biosystems). […] Ct method (Applied Biosystems) with GAPDH as an internal standard (FIG. 4).

CC(C)(O)CC(=O)NCCn1ccc2ncnc(Nc3ccc(Oc4cccc(C(F)(F)F)c4)c(Cl)c3)c21 [compound A, N-{2-[4-({3-chloro-4-[3-(trifluoromethyl)phenoxy]phenyl}amino)-5H-pyrrolo[3,2-d]pyrimidin-5-yl]ethyl}-3-hydroxy-3-methylbutaneamide]
TS expression amount: remarkably decreased
